Data reported in patent US8748566B2, “Pharmacologically active antiviral peptides and methods of use” (priority 2000, dated 2014).

Tested on: HSV-1 KOS virions
Assay: Electron microscopy of peptide-treated virions (aggregation)
Conditions: 25 μM peptide, purified virus particles
Method: Purified HSV-1 KOS virions (2.5×10^7 pfu/ml) according to Visalli et al., Virus Res. 29:167 (1993) were treated with 25 μM antiviral peptide SEQ ID NO:1 or the control peptide EBX (SEQ ID NO: 17) in 40 μl serum-free DMEM buffered with 25 mM Hepes (pH 7.4) for 5 to 60 min at 4 or 23° C. Aliquots (10 μl) were adsorbed to pioloform poly-L-lysine-coated grids for 5 min at 23° C. Grids were rinsed with PBS, stained with 2% phosphotungstic acid (PTA) in water adjusted to pH ˜6 and air dried. Alternatively, virus was pre-adsorbed to grids and treated with peptides thereafter. A total of 4×10^9 pfu/ml of purified HSV-1 KOS in 5 μl PBS was applied to the coated grids for 5 min at 23° C., and the grids were rinsed once with serum-free DMEM buffered with 25 mM Hepes (pH 7.4) and treated with 15 μl of 5 mM EB or EBX in the same medium for 30 min at 37° C. The pH of highly concentrated solutions of antiviral peptide SEQ ID NO:1 and EBX was re-adjusted to 7.4 with NaOH prior to use. To prevent evaporation of the peptide-containing solutions, each grid was held in a Hiraoka flexible staining plate and covered with miniature bell jar made from an 0.5 ml polypropylene micro-centrifuge tubes, small enough for the 15 μl to fill half of the bell jar facing the coated surface of the grid. The entire assembly was then incubated in a moist chamber for 30 min at 37° C. […]

In the case of H-RRKKAAVALLPAVLLALLAP-OH [EB], the “state of virus particles by electron microscopy” value is reported as “nearly all of the particles were seen in relatively few large aggregates”.
